According to US9040538B2, “Pyrimidines as novel therapeutic agents” (Universite Laval, priority 2009, dated 2015):

Experiments:
[1] = system: rats rendered neuropathic via the SNI Model; test: Analgesic effect in spared nerve injury (SNI) model of neuropathic pain; format: in vivo, Sprague-Dawley rats; conditions: mean ± standard error of the mean
Procedure: (§1) Adult, male Sprague-Dawley rats were obtained from Charles River Laboratories (Wilmington, Mass.) and housed under standard conditions at the Institut Armand-Frappier (Laval, QC). Food and water were provided to experimental animals ad libitum, and rats weighed 175-200 grams at the time of assessment.
(§2) Compounds were prepared for intraperitoneal administration by dissolving them in a vehicle of hydroxypropyl methylcellulose (Sigma, St-Louis, Mo.); total volume of solution administered to rats was 10 ml/kg.
Neuropathic pain was induced in rats via spared nerve injury (SNI) of the left sciatic nerve in accordance with the procedure described by Decosterd & Woolf (Pain 2000; 87(2):149-58). Briefly, under isoflurane anesthesia, the sciatic nerve was exposed by dissection at the level of lower thigh, and a lesion of two of the three terminal branches of the nerve (tibial and common peroneal nerves) were performed leaving the remaining sural nerve intact. The incision was closed-up using simple suturing, and the rats allowed to recover.
(§3) After approximately two weeks, a stable allodynia to blunt mechanical stimuli was identified in the hind paw ipsilateral to the SNI or CCI, manifested as a reduction of 50% withdrawal threshold, and identified using the Von Frey technique, as described by Chaplan et al. (J. Neurosci. Methods 1994; 53(1):55-63), or the Hargreaves method, as described by Hargreaves et al. (Pain 1988; 32(1):77-88). Rats were considered to be fully neuropathic upon displaying a 50% withdrawal threshold of ≦3.5 grams consistently over the course of 72 hours.
(§4) Compounds were administered to neuropathic rats via acute local delivery in the intraperitoneal space or by oral gavage.

[2] = system: mice subjected to the Minimal Clonic Seizure model; test: Minimal Clonic Seizure test (psychomotor seizure model of partial epilepsy, 6 Hz); format: in vivo; conditions: 100 mg/kg intraperitoneally, 32 mA, 3 seconds
Procedure: Adult mice are pretreated with 100 mg/kg of test compound, acutely administered intraperitoneally. At varying times (15, 30, 60, 120 and 240 minutes post-treatment), animals are challenged with sufficient current (32 mA, 6 Hz, for 3 seconds) delivered through corneal electrodes to elicit a psychomotor seizure. Untreated mice will display seizures characterized by a minimal clonic phase followed by stereotyped, automatistic behaviors similar to the aura of human patients with partial seizures. Animals not displaying this behavior are considered protected (Barton et al., Epilepsy Res. 2001; 47(3):217-27). Results are expressed as the number of animal protected out of the number of animal tested over time.

[3] = system: rats rendered neuropathic via the CCI model; test: Analgesic effect in chronic constriction injury (CCI) model of neuropathic pain; format: in vivo, Sprague-Dawley rats; conditions: mean ± standard error of the mean
Procedure: as §1, §2
Alternatively, neuropathic pain was induced in rats via chronic constriction injury (CCI) of the left sciatic nerve with the procedure described by Bennett & Xie (Pain 1988; 33(1):87-107). Briefly, under isoflurane anaesthesia, the sciatic nerve was exposed by dissection at the level of the lower thigh and four loose ligatures (USP 4/0, Braun Melsaugen, FRG) were implanted around the nerve—with due attention not to interrupt the epineural circulation. The incision was closed-up using simple suturing, and the rats allowed to recover.
as §3, §4

Compound	Peak 50% withdrawal threshold [1] [g]	Peak paw withdrawal latency [3] [s]	further results
Cc1cc(O)nc(SCc2c(Cl)ccc(Cl)c2Cl)n1 [6-methyl-2-{[(2,3,6-trichlorophenyl)methyl]sulfanyl}pyrimidin-4-ol]	6.24 ± 1.48		Protected Animals/tested animals ([2]; 15 minutes post-treatment): 1/4; Protected Animals/tested animals ([2]; 30 minutes post-treatment): 3/4; Protected Animals/tested animals ([2]; 60 minutes post-treatment): 2/4; Protected Animals/tested animals ([2]; 120 minutes post-treatment): 1/4; Protected Animals/tested animals ([2]; 240 minutes post-treatment): 0/4
Cc1cc(O)nc(SCc2c(Cl)cncc2Cl)n1 [2-{[(3,5-dichloropyridin-4-yl)methyl]sulfanyl}-6-methylpyrimidin-4-ol]	9.13 ± 1.60	14.49 ± 1.24	Protected Animals/tested animals ([2]; 15 minutes post-treatment): 3/4; Protected Animals/tested animals ([2]; 30 minutes post-treatment): 3/4; Protected Animals/tested animals ([2]; 60 minutes post-treatment): 3/4; Protected Animals/tested animals ([2]; 120 minutes post-treatment): 1/4; Protected Animals/tested animals ([2]; 240 minutes post-treatment): 0/4
Cc1cc(O)nc(SCc2c(Cl)ccnc2Cl)n1 [2-{[(2,4-dichloropyridin-3-yl)methyl]sulfanyl}-6-methylpyrimidin-4-ol]	7.74 ± 2.13		
CCc1ncccc1CSc1nc(C)cc(O)n1 [2-{[(2-ethylpyridin-3-yl)methyl]sulfanyl}-6-methylpyrimidin-4-ol]		10.46 ± 1.16	
Cc1cc(O)nc(SCc2nn(C)cc2Cl)n1 [2-{[(4-chloro-1-methyl-1H-pyrazol-3-yl)methyl]sulfanyl}-6-methylpyrimidin-4-ol]		11.98 ± 1.71	
CCc1cncc(Cl)c1CSc1nc(C)cc(O)n1 [2-{[(3-chloro-5-ethylpyridin-4-yl)methyl]sulfanyl}-6-methylpyrimidin-4-ol]	8.73 ± 1.75		
Oc1cc(C(F)(F)F)nc(SCc2c(Cl)cncc2Cl)n1 [2-{[(3,5-dichloropyridin-4-yl)methyl]sulfanyl}-6-(trifluoromethyl)pyrimidin-4-ol]	5.77 ± 1.01	11.7 ± 1.43	
CCc1ncsc1CSc1nc(O)cc(C(F)(F)F)n1 [Example 164, 2-{[(4-ethyl-1,3-thiazol-5-yl)methyl]sulfanyl}-6-(trifluoromethyl)pyrimidin-4-ol]		10.45 ± 0.47	
CCc1cncc(CC)c1CSc1nc(O)cc(C(F)(F)F)n1 [2-{[(3,5-diethylpyridin-4-yl)methyl]sulfanyl}-6-(trifluoromethyl)pyrimidin-4-ol]	6.04 ± 1.17		
